Test results published in PubChem BioAssay (NCI).
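Cells were grown in 96-well plates and exposed to each compound for 48 hours at five concentrations; endpoints were interpolated linearly between bracketing concentrations, or set to the highest concentration if not reached. GI50 marks 50% less growth. TGI denotes the concentration required for complete inhibition of growth.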

Tests used:
Test in all cases: NCI tumour cell line growth inhibition, 48 h
DLD-1 colon = tested on: DLD-1 colon
KM20L2 colon = tested on: KM20L2 colon
M19-MEL melanoma = tested on: M19-MEL melanoma
SNB-78 CNS = tested on: SNB-78 CNS
XF 498 CNS = tested on: XF 498 CNS
DMS 273 small cell lung = tested on: DMS 273 small cell lung
HOP-18 NSCLC = tested on: HOP-18 NSCLC
RXF-631 renal = tested on: RXF-631 renal
MDA-N = tested on: MDA-N
SN12K1 renal = tested on: SN12K1 renal

| Structure (SMILES) | TGI (DLD-1 colon) [µM] | TGI (KM20L2 colon) [µM] | TGI (M19-MEL melanoma) [µM] | TGI (SNB-78 CNS) [µM] | TGI (XF 498 CNS) [µM] | TGI (DMS 273 small cell lung) [µM] | TGI (HOP-18 NSCLC) [µM] | TGI (RXF-631 renal) [µM] | TGI (MDA-N) [µM] | other results |
| --- | --- | --- | --- | --- | --- | --- | --- | --- | --- | --- |
| CCc1ccccc1NC(=O)C1=C(C)NC(C)=C(C(=O)Nc2ccccc2CC)C1c1ccccc1Cl | > 100 | > 100 | > 100 | > 100 | > 100 |  |  |  |  |  |
| O=C1CC(O)CC(=O)C1=C(O)CCCCCCCCCCc1ccccc1 (stereo unspecified) | > 100 | > 100 | > 100 | > 100 | > 100 | > 100 | > 100 | > 100 |  |  |
| C=C(C)[C@@H]1CC[C@]2(C)CC[C@]3(C)[C@H](CC[C@@H]4[C@@]5(C)CC[C@H](O)C(C)(C)[C@@H]5CC[C@]43C)[C@@H]12 | > 100 | > 100 | > 100 |  | > 100 | > 100 |  |  | > 100 |  |
| Cc1c2ccncc2c(C)c2c1[nH]c1ccc(OC(C)C)cc12 | 3.13 | 2.59 | 3.42 | 6.05 | 2.91 | 2.07 | 2.93 |  |  |  |
| COc1cc(C(O)CCBr)c(OC)cc1C (stereo unspecified) |  |  |  |  |  |  |  |  | > 20.9 |  |
| O.O.[NH-]C1(C(=O)O)CCCC1.[NH-]C1(C(=O)O)CCCC1.[Ni+2] |  |  |  |  |  |  |  |  | > 100 | GI50 (MDA-N): > 100 µM |
| CN(/N=C/c1cccc2cccnc12)c1ccc([N+](=O)[O-])cc1[N+](=O)[O-] | > 100 | > 100 | > 100 | 61.6 | 19.2 | > 55.7 | > 100 | > 100 | > 100 |  |
| CN(O)C(=O)SCC(NC(=O)CCC(N)C(=O)O)C(=O)NCC(=O)O (stereo unspecified) | > 2000 | > 2000 | > 2000 | > 2 |  | > 2000 | > 2000 |  |  | GI50 (DLD-1 colon): > 2000 µM; GI50 (DMS 273 small cell lung): > 2000 µM; GI50 (HOP-18 NSCLC): > 2000 µM; GI50 (KM20L2 colon): > 2000 µM; GI50 (M19-MEL melanoma): > 2000 µM |
| Cc1ccc(NCC(=O)N2CC(=O)Nc3ccccc32)c(C)c1 | > 100 | > 100 | > 100 | > 100 | > 100 | > 100 | > 100 |  |  |  |
| C=C1C(=O)O[C@@H]2C[C@@H](C)[C@@H]3C=CC(=O)[C@@]3(C)[C@@H](O)[C@H]12 | 1.49 | 3.87 | 20.6 |  |  | 4.48 | 3.53 |  | 5.66 |  |
| C=CCOc1cc(NC(=S)c2ccoc2C)ccc1OC |  |  |  |  |  |  |  |  | > 100 |  |
| Cc1cc(CC(=O)NCCO)n(CCO)c(=O)c1 | > 100 |  | > 100 | > 100 | > 100 | > 100 | > 100 | > 100 |  |  |
| CSC(=Nc1nnc(-c2ccc([N+](=O)[O-])cc2)s1)SC | > 100 | > 100 | > 100 | 60.9 | 43.3 | > 100 | > 71.6 |  | > 100 |  |
| COc1ccc(-c2cc3c(c4cc(OC)ccc24)C(=O)OC3=O)cc1 |  |  |  |  |  |  |  |  | > 100 |  |
| O=[N+]([O-])c1ccc(C[P+](c2ccccc2)(c2ccccc2)c2ccccc2)cc1 | > 100 | > 100 | 81.2 |  |  | > 100 | > 100 |  |  |  |
| CCN(CC)c1c(C(=O)/C=C/c2ccc(Cl)cc2)c(-c2ccccc2)nn(C)c1=O | 3.99 | 7.84 | 3.14 | 5.93 |  | 3.41 | 4.83 | 3.99 |  |  |
| CN(Cc1ccccc1)C(=NC#N)N(Cc1ccccc1)Cc1ccccc1 | > 100 | 56.2 | 54.4 | 77.1 |  | 41.8 |  |  | 39.6 |  |
| Cc1c[n+](=O)c2ccccc2n1[O-] |  |  |  |  |  |  |  |  | > 100 |  |
| COC(=O)NC(=O)c1cn(C2OC(CO)C(O)C2O)c(=O)[nH]c1=O (stereo unspecified) | > 100 | > 100 | > 100 | > 100 |  |  |  |  |  |  |
| O=C(NCCCCNc1cccccc1=O)OCc1ccccc1 | > 100 | > 100 | > 100 | > 100 |  | > 100 | > 100 | > 100 |  |  |
| CC1=C(C(=O)Nc2cc(=O)n(C)c(=O)n2C)C(c2ccco2)C(C(=O)Nc2cc(=O)n(C)c(=O)n2C)=C(C)N1 | > 100 | > 100 | > 100 | > 100 | > 100 |  |  | > 100 |  |  |
| CCOC(=O)c1nn2c(nc1=O)sc1ccc3ccccc3c12 | > 100 | > 100 | > 100 | > 100 |  | > 100 | > 100 |  |  |  |

| Structure (SMILES) | TGI (DLD-1 colon) [µM] | TGI (KM20L2 colon) [µM] | TGI (M19-MEL melanoma) [µM] | TGI (SNB-78 CNS) [µM] | TGI (XF 498 CNS) [µM] | TGI (DMS 273 small cell lung) [µM] | TGI (HOP-18 NSCLC) [µM] | TGI (RXF-631 renal) [µM] | TGI (MDA-N) [µM] | other results |
| --- | --- | --- | --- | --- | --- | --- | --- | --- | --- | --- |
| CS(=O)(=O)OC1CCC2(C#N)CCC1C2=O (stereo unspecified) | > 100 | > 100 | > 100 | > 100 | > 100 | > 100 | > 100 | > 100 |  |  |
| NC(=O)C(=O)N/N=C1\C(=O)N(c2ccc(Cl)cc2Cl)C(=O)C1C(=O)Nc1ccc(Cl)cc1Cl (stereo unspecified) | > 100 | > 100 | > 100 | > 100 | > 100 | > 100 | > 100 |  |  |  |
| N#CC1(C#N)C2(c3ccccc3)OC(c3ccccc3)(c3cc4ccccc4cc32)C1(C#N)C#N | 22.3 | 26.4 |  |  |  | 32 | 17.8 |  | 34.4 |  |
| N.N.N.N.N.NC(=O)c1nn[n-]n1.[Cl-].[Co+3] | > 100 | > 100 |  | > 100 |  | > 100 | > 100 |  |  | GI50 (DLD-1 colon): > 100 µM; GI50 (DMS 273 small cell lung): > 100 µM; GI50 (HOP-18 NSCLC): > 100 µM; GI50 (KM20L2 colon): > 100 µM; GI50 (SNB-78 CNS): > 100 µM |
| C=C(C)C(O)CCC1(C)C=Cc2c(c(C)cc3c2[nH]c2ccccc23)O1 (stereo unspecified) | 18.8 | 7.57 | 25 | 25 | 25 |  |  |  | 17.3 |  |
| CCCCCCCCCCCc1nnc(N)o1 | > 100 | > 100 | > 100 | > 100 | > 100 | > 100 |  | > 100 |  |  |
| CC(C)=CC1C[C@H](C2CC=C3C2(C)CCC2[C@@]3(C)C(=O)CC3[C@]2(C)C=CC(=O)[C@]3(C)CO)CO1 (stereo partly specified) |  | 19.1 | 16.7 | 48.4 | 12.9 | 18.4 | 30.1 |  |  |  |
| C[C@]12CC[C@@H]3c4ccc(OC(=O)N(CCCl)CCCl)cc4CC[C@H]3[C@@H]1CC[C@@H]2O | 1.05 |  | 0.254 | 17.3 |  | 24.2 | 14 |  |  | TGI (SN12K1 renal): 0.276 µM |
| O=C(O)CCCSC(=O)Nc1ccc(N=Nc2ccccc2)cc1 |  | > 100 |  | > 100 |  | > 100 |  |  |  |  |
| CC(C)Cn1cnc2c(SCc3ccc(Cl)cc3Cl)nc(N)nc21 |  |  |  |  |  |  |  |  | > 100 |  |
| O=C(O)CCN(CCCCN(CCC(=O)O)CCC(=O)O)CCC(=O)O | > 100 |  | > 100 |  | > 100 | > 100 | > 100 |  |  |  |
| CCOc1cccc(/C=N/N=C2\C(=O)Nc3c(Cl)cc(Cl)cc32)c1O |  |  |  |  |  |  |  |  | > 100 |  |
| CC1(C)O[C@H]2[C@H](O)C[C@](O)(CO)C[C@H]2O1 | > 100 | > 100 | > 100 | > 100 |  | > 100 |  | > 100 |  |  |
| O=C(O)CN(CC(=O)O)Cc1cc(C#Cc2ccc(C#Cc3ccccc3)cc2)cc(CN(CC(=O)O)CC(=O)O)n1 | > 68.1 | > 76.3 | 39.9 | > 100 | > 100 | 23.5 | > 100 |  | > 100 |  |
| CC1=C(c2ccccc2)C(c2ccccc2)=C(c2ccccc2)C2(c3ccccc3)C(=O)C(C)CN12 (stereo unspecified) | > 100 | > 100 | > 100 |  | 82.8 | > 100 |  |  |  |  |
| O=C1N(C2CCCCC2)CC12CCCCC2 |  | > 100 | > 100 | > 100 | > 100 | > 100 | > 100 | > 100 |  |  |
| O=C(O)C1=C(O)C(C(=O)O)C23CCCCCCCCCCC12C(C(=O)O)C(O)=C3C(=O)O (stereo unspecified) | > 100 |  | > 100 |  | > 100 | > 100 | > 100 |  |  |  |
| C=CCNC(=O)N(CCCCC(NC(C)=O)C(=O)NCc1ccccc1)Cc1ccccc1 (stereo unspecified) |  | > 100 | > 100 |  | > 100 | > 100 | > 100 | > 100 |  |  |
| COc1cc(Br)c(C=Nc2cccc3cc(OC)c(OC)cc23)cc1OC | > 100 | > 100 | > 100 | > 100 |  | > 100 | > 100 | > 100 |  |  |
| COc1ccc(C23C(=O)c4ccccc4N2O[C@H]2C(=O)N(c4ccccc4)C(=O)[C@H]23)cc1 (stereo partly specified) | > 100 | > 100 | > 100 | > 100 | > 100 | > 100 | > 100 | > 100 |  |  |
| CCOC(=O)C12CCCC1(O)N(NC(=O)OC(C)(C)C)C(C)=C2C(=O)OC (stereo unspecified) | > 100 | > 100 | > 100 | > 100 | > 100 | > 100 | > 100 | > 100 |  |  |
